Measured values as given in publication PMC4227742 (Journal of the American Chemical Society, 2014).
pIC50: −log10 of the molar value.

What was measured:
Gcn5 [1] = biological target: T1, Gcn5 (Homo sapiens, UniProt Q92830); experiment: Competitive substrate profiling: Gcn5 labeling by probe 2 vs acyl-CoAs; type: binding; details: 2 (10 μM), acyl-CoAs (1000 μM)
Gcn5 [2] = biological target: T1, Gcn5; experiment: LC–MS/MS verification of Gcn5 acyltransferase activity; type: biochemical; details: LC–MS/MS analysis, Supplementary Figure S10
pCAF [3] = biological target: T2, pCAF (Homo sapiens, UniProt Q92831); details: excess competitor (100 μM), probe 2 1 μM
Mof = biological target: T3, Mof (Homo sapiens, UniProt Q9H7Z6); experiment: Competition of Mof labeling by probe 3; type: binding; details: excess competitor (100 μM), probe 3 1 μM
T3 sequence (Q9H7Z6 147-449): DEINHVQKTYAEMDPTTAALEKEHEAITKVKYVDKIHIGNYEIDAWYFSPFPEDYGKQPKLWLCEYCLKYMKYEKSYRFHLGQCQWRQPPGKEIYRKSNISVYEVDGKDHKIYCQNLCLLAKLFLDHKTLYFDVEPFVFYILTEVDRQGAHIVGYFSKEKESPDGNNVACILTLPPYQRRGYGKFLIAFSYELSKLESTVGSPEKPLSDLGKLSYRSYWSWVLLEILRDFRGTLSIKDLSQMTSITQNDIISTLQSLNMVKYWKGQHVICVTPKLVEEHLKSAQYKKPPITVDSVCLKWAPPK

pCAF [4] = details: read-out: literature IC50; cited from earlier work
human pCAF = details: cited from earlier work
pCAF [5] = biological target: T2, pCAF; experiment: Labeling of pCAF in HEK-293 overexpression extracts; type: binding
Mof (MYST1) = biological target: T4, Mof (MYST1) (Homo sapiens, UniProt Q9H7Z6); experiment: Photoaffinity/click fluorescent labeling of recombinant KAT, SDS-PAGE; type: binding; details: for Labeling of Mof in KAT cocktail: probe 1 μM, mixture of p300, pCAF
T4 sequence (Q9H7Z6 147-449): T3 sequence (Q9H7Z6 147-449)

pCAF [6] = biological target: T2, pCAF; experiment: as above; type: binding; details: for Fluorescent detection of pCAF at high probe concentration: 1 μM probe; for Labeling of pCAF in KAT cocktail: probe 1 μM, mixture of p300, pCAF, Mof
pCAF [7] = biological target: T2, pCAF; experiment: Detection of recombinant pCAF spiked into HeLa cell proteome; type: binding
p300 = biological target: T5, p300 (Homo sapiens, UniProt Q09472); experiment: Photoaffinity/click fluorescent labeling of recombinant KAT, SDS-PAGE; type: binding; details: probe 1 μM; mixture of p300, pCAF, Mof
T5 sequence (Q09472 1284-1673): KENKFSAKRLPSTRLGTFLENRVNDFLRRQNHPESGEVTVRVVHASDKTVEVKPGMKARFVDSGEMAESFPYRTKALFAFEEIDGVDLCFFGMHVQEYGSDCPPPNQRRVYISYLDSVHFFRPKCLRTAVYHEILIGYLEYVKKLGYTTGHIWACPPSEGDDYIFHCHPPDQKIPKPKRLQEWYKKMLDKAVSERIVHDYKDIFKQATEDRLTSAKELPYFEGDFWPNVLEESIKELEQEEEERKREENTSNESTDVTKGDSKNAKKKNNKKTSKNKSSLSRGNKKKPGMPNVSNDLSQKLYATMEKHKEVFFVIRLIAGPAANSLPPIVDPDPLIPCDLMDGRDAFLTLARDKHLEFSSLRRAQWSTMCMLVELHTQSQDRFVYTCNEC

[8] = probe 1–10 μM, 365 nm, click with fluorescent azide

Compound: CC(=O)SCCNC(=O)CCNC(=O)[C@H](O)C(C)(C)COP(=O)(O)OP(=O)(O)OC[C@H]1O[C@@H](n2cnc3c(N)ncnc32)[C@H](O)[C@@H]1OP(=O)(O)O [acetyl-CoA]
- Competition with 2 for active site occupancy of Gcn5 (Gcn5 [1]): efficiently competed labeling

Compound: CCCC(=O)SCCNC(=O)CCNC(=O)[C@H](O)C(C)(C)COP(=O)(O)OP(=O)(O)OC[C@H]1O[C@@H](n2cnc3c(N)ncnc32)[C@H](O)[C@@H]1OP(=O)(O)O [butyryl-CoA]
- Competition with 2 for active site occupancy of Gcn5 (Gcn5 [1]): partial antagonist
- Use as substrate by Gcn5 (Gcn5 [2]): utilized

Compound: CC(=O)N[C@@H](CCCCNC(=O)CSCCNC(=O)CCNC(=O)[C@H](O)C(C)(C)COP(=O)(O)OP(=O)(O)OC[C@H]1O[C@@H](n2cnc3c(N)ncnc32)[C@H](O)[C@@H]1OP(=O)(O)O)C(N)=O [compound 4, Lys-CoA]
- Competition of interaction of pCAF with 2 (pCAF [3]): no similar effect
- Competition of Mof-3 interaction (Mof): competed

Compound: CC=CC(=O)SCCNC(=O)CCNC(=O)[C@H](O)C(C)(C)COP(=O)(O)OP(=O)(O)OC[C@H]1O[C@@H](n2cnc3c(N)ncnc32)[C@H](O)[C@@H]1OP(=O)(O)O [crotonyl-CoA]
- Competition with 2 for active site occupancy of Gcn5 (Gcn5 [1]): did not impede labeling

Compound: CC(C)(COP(=O)(O)OP(=O)(O)OC[C@H]1O[C@@H](n2cnc3c(N)ncnc32)[C@H](O)[C@@H]1OP(=O)(O)O)[C@@H](O)C(=O)NCCC(=O)NCCSC(=O)CC(=O)O [malonyl-CoA]
- Use as substrate by pCAF (human pCAF): not utilized as a substrate

Compound: CCC(=O)SCCNC(=O)CCNC(=O)[C@H](O)C(C)(C)COP(=O)(O)OP(=O)(O)OC[C@H]1O[C@@H](n2cnc3c(N)ncnc32)[C@H](O)[C@@H]1OP(=O)(O)O [propionyl-CoA]
- Competition with 2 for active site occupancy of Gcn5 (Gcn5 [1]): antagonized labeling
- Use as substrate by Gcn5 (Gcn5 [2]): utilized

Compound: H3K14-CoA [compound 5, reference compound]
- Competition of pCAF labeling by 2 in HEK-293 overexpression extracts (pCAF [5]; competitor): sensitive to competition

Compound: H3K14-CoA-BPyne [compound 2]
- Labeling of Mof in KAT cocktail (Mof (MYST1)): weaker, but detectable, labeling
- Relative labeling of pCAF at low probe concentration (pCAF [6]; 0.1 μM probe, clickable 2 compared with fluorescent probe 7): visibly greater labeling
- Fluorescent detection of pCAF at high probe concentration (pCAF [6]): facilitate fluorescent detection
- Fraction of pCAF covalently labeled (cross-linking yield) (pCAF [6]; 60 min irradiation at 365 nm on ice, gel densitometry): 33–40%
- Labeling of pCAF in KAT cocktail (pCAF [6]): clear preference for specific labeling
- Fluorescent labeling of purified recombinant pCAF (pCAF [6]; [8]): reacted effectively
- Lower limit of pCAF detection (pCAF [7]; 2 (1 μM), HeLa proteome (7 μg), gel-based): 2.5 pmols
- Detection of pCAF spiked into HeLa cell proteomes (pCAF [7]; pCAF 7 pmols): capable of detecting
- Labeling of pCAF in HEK-293 overexpression extracts (pCAF [5]; fluorescence gel): Weak but detectable labeling

Compound: H4K16-CoA-BPyne [compound 3]
- Labeling of p300 in KAT cocktail (p300): fainter labeling
- Labeling of Mof in KAT cocktail (Mof (MYST1)): most strongly labeled
- Fluorescent labeling of purified recombinant Mof (Mof (MYST1); [8]): reacted effectively
- Labeling of pCAF in KAT cocktail (pCAF [6]): fainter labeling

Compound: TAMRA-H3K14-CoA [compound 7]
- Fluorescent detection of pCAF at high probe concentration (pCAF [6]): facilitate fluorescent detection
